Entries after “also recorded” stand apart in the source; their conditions may differ.
System: LAGλ-1 tumor
Assay: LAGλ-1 human MM xenograft in SCID mice
Format: in vivo, CB17 SCID mice
Settings: melphalan 3 mg/kg twice weekly i.p., vs untreated mice
Source text: Serum human BCMA levels also correlated with tumor growth, IgG levels and response to treatment in mice bearing another human MM xenograft, LAGλ-1. Untreated mice (n=4) had large tumor volumes and high serum IgG and BCMA levels. […] Human BCMA was not detected in the serum of non-tumor bearing SCID mice (data not shown).

SMILES: N[C@@H](Cc1ccc(N(CCCl)CCCl)cc1)C(=O)O [melphalan, Melphalan]
- tumor volumes (P<0.0001): smaller; also recorded: small tumor volumes
- serum IgG levels (P=0.0033): smaller; also recorded: significantly reduced
- serum human BCMA levels (P=0.0055): smaller; also recorded: significantly reduced

Source: US12174189B2, “Diagnostic, prognostic, and monitoring methods for chronic lymphocytic leukemia” (INSTITUTE FOR MYELOMA & BONE CANCER RESEARCH, priority 2013, dated 2024)
